Test results taken from PubChem BioAssay (NCI).
Several values for one entry are separate records, joined by “and”; a condition that tells them apart may be missing. Equal entries are not always repeated.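 Five compound concentrations were applied to cells in 96-well plates for 48 hours; endpoints were derived by simple linear interpolation of the resulting dose-response curve. At the GI50, growth is halved. TGI marks complete inhibition of growth.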

Key:
Assay in all cases: growth of human tumour cells (NCI), 48 h
HCC-2998 colon = system: HCC-2998 colon
T-47D breast = system: T-47D breast
HCT-15 colon = system: HCT-15 colon
RPMI-8226 leukemia = system: RPMI-8226 leukemia
PC-3 prostate = system: PC-3 prostate
SK-OV-3 ovarian = system: SK-OV-3 ovarian
SF-268 CNS = system: SF-268 CNS
A498 renal = system: A498 renal
HOP-62 NSCLC = system: HOP-62 NSCLC
MDA-MB-231 breast = system: MDA-MB-231 breast

| Compound | TGI (HCC-2998 colon) | TGI (T-47D breast) | TGI (HCT-15 colon) | TGI (RPMI-8226 leukemia) | TGI (PC-3 prostate) | TGI (SK-OV-3 ovarian) | TGI (SF-268 CNS) | TGI (A498 renal) | TGI (HOP-62 NSCLC) | TGI (MDA-MB-231 breast) | GI50 (HCC-2998 colon) | GI50 (RPMI-8226 leukemia) | GI50 (SK-OV-3 ovarian) | GI50 (SF-268 CNS) | GI50 (A498 renal) | GI50 (HOP-62 NSCLC) |
| --- | --- | --- | --- | --- | --- | --- | --- | --- | --- | --- | --- | --- | --- | --- | --- | --- |
| CC(C)Oc1cccc(N2C(n3ccnc3)=Nc3ccncc3S2(=O)=O)c1 | 31 µM | 41.5 µM | 32.7 µM | 12.3 µM | 22.7 µM | 31.8 µM | 30.2 µM | 31.8 µM | 33.6 µM | – | – | – | – | – | – | – |
| O=c1[nH]c(NCc2ccncc2)nc2nc[nH]c12 | > 100 µM | > 100 µM | > 100 µM | > 100 µM | > 100 µM | > 100 µM | > 100 µM | – | > 100 µM | > 100 µM | – | – | – | – | – | – |
| Cc1cc([N+](=O)[O-])c(C)c2c1[nH]c1ccc(Cl)cc12 | > 100 µM | – | > 100 µM | > 100 µM | – | – | > 100 µM | – | > 100 µM | – | – | – | – | – | – | – |
| COC(=O)[C@]1(C)CCC[C@@]2(C)C1CC[C@]13C=C(C(C)C)[C@H](CC21)CC3(Cl)C#N (some centres not stated) | > 100 µM | 55.8 µM | > 100 µM | – | > 100 µM | > 100 µM | > 100 µM | > 100 µM | > 100 µM | > 100 µM | – | – | – | – | – | – |
| Clc1cccc(-c2sc(-c3cccs3)cc2Cc2cccs2)c1 | > 10 µM | > 10 µM | > 10 µM | > 10 µM | > 10 µM | > 10 µM | > 10 µM | – | > 10 µM | > 10 µM | – | – | – | – | – | – |
| Cc1c2ccnc(C(N)=O)c2c(C)c2c1[nH]c1ccccc12 | 50 µM and 19.4 µM | – | 41.1 µM and > 100 µM | 34.5 µM and 16.4 µM | – | 23.9 µM and 34.3 µM | 44.6 µM and 27.8 µM | 26.7 µM and 12.4 µM | 26.8 µM and 16.9 µM | – | 4.67 µM | 3.58 µM | 14.1 µM | 6.19 µM | 3.09 µM | 4.03 µM |
| COC(=O)CNC(=O)C(CSC(=O)OCC1c2ccccc2-c2ccccc21)NC(=O)CCC(NC(=O)OCC1c2ccccc2-c2ccccc21)C(=O)OC (configuration not stated) | 40.7 µM | – | > 100 µM | 90.1 µM | > 100 µM | 74.6 µM | 51.9 µM | – | 40.2 µM | 30.2 µM | – | – | – | – | – | – |
| Cn1nc(-c2ccc(S(=O)(=O)/N=C(\NN)Nc3ccc(Cl)cc3)s2)cc1C(F)(F)F | – | 27.6 µM | 47.5 µM | 56 µM | 31.2 µM | 41.9 µM | 32.6 µM | 31 µM | 32.3 µM | 32.2 µM | – | – | – | – | – | – |
| CCOC(=O)C1C(c2ccc(Cl)cc2Cl)NC(c2ccc(C)cc2)C(C(=O)OC)S1(=O)=O (configuration not stated) | > 100 µM | – | > 100 µM | > 100 µM | – | > 100 µM | > 100 µM | > 100 µM | > 100 µM | – | – | – | – | – | – | – |
| COc1ccc2ccc3oc(=O)c(C)cc3c2c1 | > 100 µM | > 100 µM | – | > 100 µM | > 100 µM | – | > 100 µM | > 100 µM | > 100 µM | > 100 µM | – | – | – | – | – | – |
| Cc1ccccc1-c1nc2c(N)nc(N)nc2nc1N | > 100 µM | – | > 100 µM | > 100 µM | > 100 µM | > 100 µM | > 100 µM | – | > 100 µM | > 100 µM | – | – | – | – | – | – |
| C[C@@H]1CC[C@@]2(C)C(C(=O)O)=CCCC2[C@@]1(C)CC(=O)c1ccoc1 (some centres not stated) | – | > 25 µM | > 25 µM | > 25 µM | > 25 µM | > 25 µM | > 25 µM | > 25 µM | – | > 25 µM | – | – | – | – | – | – |
